Assay results: patent US6733996B2, “Methods for regulating gene expression using light” (Trustees of Dartmouth College, priority 2002, dated 2004)

Biological target: T1, WC-1/WC-2 (White Collar Complex) (Neurospora crassa, UniProt Q01371)
T1 construct: in vitro transcribe/translate full-length WC-1 using pAF60 as template and full length WC-2 using pGEM®/WC-2 as template; made in house; host or cells: cell-free: TNT-Coupled Reticulocyte Lysate system (Promega), templates pAF60 (WC-1) and pGEM/WC-2
Experiment: Electrophoretic mobility shift assay of in vitro-translated WC-1 and WC-2 binding to frq LRE probe, with or without flavin cofactor and light
Settings: for Average amount of faster migrating complex ± SEM / Average amount of slower migrating complex ± SEM: +FAD (1 mM in translation reaction), in vitro-translated WC-1 and WC-2, densitometry; for Light regulation of LRE binding of in vitro-translated WC-1/WC-2: flavin added to the WC-1 translation reaction, 1 mM
Protocol: In vitro coupled transcription/translation was conducted to produce WC-1 and WC-2 proteins for subsequent use in binding reactions. WC-1 and WC-2 together were able to bind to the LREs as not just one, but two distinct complexes with mobilities similar to those seen using nuclear extracts. […] These complexes were not seen when either protein was used alone or when unprogrammed lysate was used.
In vitro translation experiments and subsequent binding reactions were repeated, this time adding FMN or flavin adenine dinucleotide (FAD) to the WC-1 translation reaction. FAD is the flavin cofactor for both the blue light-sensing cryptochromes (Cashmore, et al. (1999) Science 284:760) and the Euglena photoactivated adenyl cyclase (Iseki, et al. (2001) Nature 415:1047).
When FAD was combined with WC-1 and WC-2, light caused a marked increase in the amount of slower migrating complex relative to the reactions not treated with light. Furthermore, a marked increase in the slower migrating complex was observed, as compared to reactions lacking FAD treated with or without light. […] The addition of FAD confers light responsiveness to the WCC, similar to that seen with the nuclear extracts. In the dark, a faster migrating WC-1/WC-2 dimeric complex dominates, yielding in the presence of light to a larger, slower migrating WC-1/WC-2 multimeric complex. WC-1 with FAD, exposed to light in the absence of WC-2, can initiate the mobility shift when subsequently combined in the dark with WC-2. Furthermore, WC-1 can be reconstituted with free FAD after in vitro translation. Thus, it is WC-1 that is the initial active protein partner in mediating the photoresponse.
The probes consisted of two oligonucleotides of equal length annealed together and end-labeled using T4 polynucleotide kinase and [^γ-32P]ATP. Unincorporated ATP was removed using a BIO-GEL® P-30 chromatography column (BIO-RAD®, Hercules, Calif.), and probe was diluted to a final concentration of 0.018 μM. Oligonucleotide pairs were annealed for use as probe or unlabeled competitor. Distal LRE probe, the unrelated 42 bp competitor, and the mutated distal LRE competitor were generated with oligonucleotide pairs ACF57/ACF58, ACF40/ACF48 and ACF67/ACF68, respectively. The proximal LRE probe and mutated proximal LRE competitor were generated with oligonucleotide pairs ACF62/ACF63 and ACF69/ACF70, respectively.
Binding reactions using nuclear protein extracts contained 1× binding buffer, […], 0.1 μg poly(dI-dC), 1 μl probe, 0.5 μl of normal rabbit sera (Pocono Rabbit Farm, Canadensis, Pa.), and 3 μg of nuclear protein extract, which was added last to the binding reactions, in a total volume of 20 μl. In reactions that contained antisera, 1 μl anti-WC-1, 1 μl anti-WC-2, or 0.5 μl anti-FRQ was used. Binding reactions using in vitro translated proteins contained 1× binding buffer, 1 μg poly(dI-dC), 1 μl probe, and 6 μl of the in vitro translation reaction in a total volume of 20 μl . Binding reactions were incubated for 30 minutes on ice prior to electrophoresis at 4° C. on nondenaturing 4% polyacrylamide gels containing 0.5×TBE and 2.5% (v/v) glycerol. Gels were dried and visualized using a PhosphorImager and IMAGEQUANT® software (Molecular Dynamics, Sunnyvale, Calif.). Binding reactions and gel electrophoreses were performed under red lights.
TNT®-Coupled Reticulocyte Lysate system (PROMEGA®, Madison, Wis.) was used according to the manufacturer's directions to in vitro transcribe/translate full-length WC-1 using pAF60 as template and full length WC-2 using pGEM®/WC-2 as template. 8 μM ZnCl2 was added to each reaction. Where indicated, FAD (SIGMA®, St. Louis, Mo.) and FMN (SIGMA®, St. Louis, Mo.) were added to a final concentration of 1 mM. Reactions were conducted under red lights.

T1 sequence (Q01371 whole entry): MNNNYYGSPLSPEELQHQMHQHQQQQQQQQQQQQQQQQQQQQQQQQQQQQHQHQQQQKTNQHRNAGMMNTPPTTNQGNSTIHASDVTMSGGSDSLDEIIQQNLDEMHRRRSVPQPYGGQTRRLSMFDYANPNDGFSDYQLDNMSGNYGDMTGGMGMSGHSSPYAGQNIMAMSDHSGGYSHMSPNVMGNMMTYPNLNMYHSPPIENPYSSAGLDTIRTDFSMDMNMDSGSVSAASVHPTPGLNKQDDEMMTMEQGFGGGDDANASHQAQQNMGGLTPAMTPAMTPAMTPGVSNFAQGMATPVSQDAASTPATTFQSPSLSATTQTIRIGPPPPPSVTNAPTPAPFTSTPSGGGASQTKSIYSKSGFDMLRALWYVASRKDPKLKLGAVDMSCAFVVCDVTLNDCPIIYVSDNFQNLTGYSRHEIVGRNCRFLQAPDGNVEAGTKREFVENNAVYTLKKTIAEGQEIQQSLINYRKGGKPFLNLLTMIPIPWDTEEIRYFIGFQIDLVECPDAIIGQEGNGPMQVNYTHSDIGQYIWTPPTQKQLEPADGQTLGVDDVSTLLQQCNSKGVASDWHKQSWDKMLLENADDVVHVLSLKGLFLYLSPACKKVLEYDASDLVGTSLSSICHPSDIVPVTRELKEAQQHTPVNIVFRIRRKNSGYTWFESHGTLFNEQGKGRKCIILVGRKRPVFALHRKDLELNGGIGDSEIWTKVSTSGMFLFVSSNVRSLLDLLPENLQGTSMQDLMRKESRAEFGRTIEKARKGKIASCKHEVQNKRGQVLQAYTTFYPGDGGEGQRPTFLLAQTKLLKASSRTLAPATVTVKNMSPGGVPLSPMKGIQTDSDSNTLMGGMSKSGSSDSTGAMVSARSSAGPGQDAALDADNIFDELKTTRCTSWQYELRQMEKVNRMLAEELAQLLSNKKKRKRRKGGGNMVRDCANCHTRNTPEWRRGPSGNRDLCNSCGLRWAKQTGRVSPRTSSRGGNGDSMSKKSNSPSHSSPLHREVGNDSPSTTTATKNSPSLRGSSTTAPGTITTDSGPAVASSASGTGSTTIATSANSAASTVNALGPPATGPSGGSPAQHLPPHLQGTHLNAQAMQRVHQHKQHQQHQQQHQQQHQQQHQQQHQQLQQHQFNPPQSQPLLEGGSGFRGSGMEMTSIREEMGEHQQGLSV
T1 sequence (P78714 whole entry, further chain): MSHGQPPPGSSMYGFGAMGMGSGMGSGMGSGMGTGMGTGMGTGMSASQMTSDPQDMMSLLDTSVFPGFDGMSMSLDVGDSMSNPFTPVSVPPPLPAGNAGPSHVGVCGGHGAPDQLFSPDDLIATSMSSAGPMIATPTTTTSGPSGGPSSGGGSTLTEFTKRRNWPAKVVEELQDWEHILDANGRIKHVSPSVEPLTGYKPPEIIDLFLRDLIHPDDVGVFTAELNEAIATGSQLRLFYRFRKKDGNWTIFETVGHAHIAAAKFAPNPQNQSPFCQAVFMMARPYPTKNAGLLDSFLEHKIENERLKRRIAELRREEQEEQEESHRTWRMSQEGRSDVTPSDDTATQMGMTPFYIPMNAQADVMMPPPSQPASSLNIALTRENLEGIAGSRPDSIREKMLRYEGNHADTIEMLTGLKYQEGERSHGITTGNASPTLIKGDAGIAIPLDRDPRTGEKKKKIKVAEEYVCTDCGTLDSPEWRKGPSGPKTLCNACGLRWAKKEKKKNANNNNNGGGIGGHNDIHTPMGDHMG

SMILES	Average amount of faster migrating complex ± SEM (Dark)	Average amount of slower migrating complex ± SEM (Dark)	Average amount of faster migrating complex ± SEM (Light)	Average amount of slower migrating complex ± SEM (Light)	Light regulation of LRE binding of in vitro-translated WC-1/WC-2
Cc1cc2nc3c(=O)[nH]c(=O)nc-3n(C[C@H](O)[C@H](O)[C@H](O)COP(=O)(O)OP(=O)(O)OC[C@H]3O[C@@H](n4cnc5c(N)ncnc54)[C@H](O)[C@@H]3O)c2cc1C [FAD, flavin adenine dinucleotide]	334119 ± 43086	56912 ± 3055	264723 ± 22687	237163 ± 9706	conferred light sensitivity
Cc1cc2nc3c(=O)[nH]c(=O)nc-3n(C[C@H](O)[C@H](O)[C@H](O)COP(=O)(O)O)c2cc1C [FMN, flavin mononucleotide]	–	–	–	–	No light regulation of binding
